What all share (assay type): in vivo
In experiment [1] the test system is healthy human subjects. The experiment in a line: PET with FDG: cerebral glucose metabolism (CMRglu) under behavioral clamp, drug versus placebo.
The test system of experiment [2] is healthy human subjects. The experiment in a line: Profile of Mood States (POMS): subjective effects. Particulars: fluoxetine 40 mg oral versus placebo.
Source text: (§1) Ninety minutes after administration of fluoxetine or placebo, subjects were repositioned in the PET scanner and a visual monitoring task (VMT) was initiated. The task assured a stable behavioral condition at the time of testing. Each subject was asked to press a button with his or her right thumb every time a dim light (50% of trials) was presented on a screen mounted in front of him or her and was asked to ignore every bright light (50%). The lights were presented under computer control at random intervals ranging from 4 to 7 sec. Each subjected completed four blocks of 96 trials each (approximately 10 min per block). Subjects also completed the Profile of Mood States (POMS) before the capsule and 20 min after injection of FDG.
Experiment [3] relates to healthy human subjects. The experiment is described as follows: visual monitoring task (VMT): reaction time and accuracy.
Source text: as §1
Setting [4] is: ethanol 0.5 g/kg versus placebo (tonic water), FIG. 3.
Setting [5] is: fluoxetine 40 mg oral versus placebo, voxel t-test images (FIG. 1).

“Also recorded” adds a separate entry of the source.

Consider `CCO` [ethanol], for which, in the experiment on healthy human subjects [1] (setting [4]), the “rCMglu in frontal and temporal lobes, basal ganglia and limbic system” value is “affected”; the “rCMglu in the left hemisphere” value was “widespread increase”.
Consider `CNCCC(Oc1ccc(C(F)(F)F)cc1)c1ccccc1` (stereo not shown) [fluoxetine], for which the “subjective effects as measured by the POMS” value in the experiment with healthy human subjects [2] is “no differences”. In addition, in the experiment with healthy human subjects [1] (setting [5]), the “relative glucose metabolism in bilateral amygdaloid complex, hippocampal formation and ventral striatum” value was “decreased relative glucose metabolism; also recorded: decrease in CMRglu”; the “relative glucose metabolism in right superior parietal lobe (Brodmann area 7)” value is on record as “increased relative metabolism; also recorded: increase in metabolism”. Also, the “Average global CMRglu” value with healthy human subjects [1] (fluoxetine 40 mg oral, FDG about 90 min after dosing, four healthy subjects, mean of all slices) stood at 8.22±0.86 mg 100 g^1 min^−1. In addition, the “Average global CMRglu, fluoxetine scans versus placebo scans” value in the experiment with healthy human subjects [1] (fluoxetine 40 mg oral, paired two-tailed t-test) was “not significantly different”. Besides, the “accuracy on the VMT (% correct)” value in the experiment with healthy human subjects [3] (after fluoxetine 40 mg oral) is on record as 96.4±3.2 % correct. Also, in the experiment with healthy human subjects [3] (after fluoxetine 40 mg oral, ± s.d.), the “median reaction time on the VMT” value stood at 553 ± 64 ms. The “effects on reaction time or accuracy on the VMT” value with healthy human subjects [3] (fluoxetine 40 mg oral versus placebo) is listed as “no systematic effects”.

The values above are taken from patent US6569403B1, “Determining effects of external stimuli on the brain using PET” (Miicro, Incorporated, priority 1995, dated 2003).
